Each molecule was assayed against human Cav2.2 (Homo sapiens, UniProt Q00975) (assay: Assessment of calcium channel activity using FLIPR (Ca2+ influx in IMR32 cells)). Conditions: 3 minute pre-incubation with compound (*), 2 μM nifedipine, depolarized with 80 mM KCl.
Chain of human Cav2.2 (Q00975 whole entry): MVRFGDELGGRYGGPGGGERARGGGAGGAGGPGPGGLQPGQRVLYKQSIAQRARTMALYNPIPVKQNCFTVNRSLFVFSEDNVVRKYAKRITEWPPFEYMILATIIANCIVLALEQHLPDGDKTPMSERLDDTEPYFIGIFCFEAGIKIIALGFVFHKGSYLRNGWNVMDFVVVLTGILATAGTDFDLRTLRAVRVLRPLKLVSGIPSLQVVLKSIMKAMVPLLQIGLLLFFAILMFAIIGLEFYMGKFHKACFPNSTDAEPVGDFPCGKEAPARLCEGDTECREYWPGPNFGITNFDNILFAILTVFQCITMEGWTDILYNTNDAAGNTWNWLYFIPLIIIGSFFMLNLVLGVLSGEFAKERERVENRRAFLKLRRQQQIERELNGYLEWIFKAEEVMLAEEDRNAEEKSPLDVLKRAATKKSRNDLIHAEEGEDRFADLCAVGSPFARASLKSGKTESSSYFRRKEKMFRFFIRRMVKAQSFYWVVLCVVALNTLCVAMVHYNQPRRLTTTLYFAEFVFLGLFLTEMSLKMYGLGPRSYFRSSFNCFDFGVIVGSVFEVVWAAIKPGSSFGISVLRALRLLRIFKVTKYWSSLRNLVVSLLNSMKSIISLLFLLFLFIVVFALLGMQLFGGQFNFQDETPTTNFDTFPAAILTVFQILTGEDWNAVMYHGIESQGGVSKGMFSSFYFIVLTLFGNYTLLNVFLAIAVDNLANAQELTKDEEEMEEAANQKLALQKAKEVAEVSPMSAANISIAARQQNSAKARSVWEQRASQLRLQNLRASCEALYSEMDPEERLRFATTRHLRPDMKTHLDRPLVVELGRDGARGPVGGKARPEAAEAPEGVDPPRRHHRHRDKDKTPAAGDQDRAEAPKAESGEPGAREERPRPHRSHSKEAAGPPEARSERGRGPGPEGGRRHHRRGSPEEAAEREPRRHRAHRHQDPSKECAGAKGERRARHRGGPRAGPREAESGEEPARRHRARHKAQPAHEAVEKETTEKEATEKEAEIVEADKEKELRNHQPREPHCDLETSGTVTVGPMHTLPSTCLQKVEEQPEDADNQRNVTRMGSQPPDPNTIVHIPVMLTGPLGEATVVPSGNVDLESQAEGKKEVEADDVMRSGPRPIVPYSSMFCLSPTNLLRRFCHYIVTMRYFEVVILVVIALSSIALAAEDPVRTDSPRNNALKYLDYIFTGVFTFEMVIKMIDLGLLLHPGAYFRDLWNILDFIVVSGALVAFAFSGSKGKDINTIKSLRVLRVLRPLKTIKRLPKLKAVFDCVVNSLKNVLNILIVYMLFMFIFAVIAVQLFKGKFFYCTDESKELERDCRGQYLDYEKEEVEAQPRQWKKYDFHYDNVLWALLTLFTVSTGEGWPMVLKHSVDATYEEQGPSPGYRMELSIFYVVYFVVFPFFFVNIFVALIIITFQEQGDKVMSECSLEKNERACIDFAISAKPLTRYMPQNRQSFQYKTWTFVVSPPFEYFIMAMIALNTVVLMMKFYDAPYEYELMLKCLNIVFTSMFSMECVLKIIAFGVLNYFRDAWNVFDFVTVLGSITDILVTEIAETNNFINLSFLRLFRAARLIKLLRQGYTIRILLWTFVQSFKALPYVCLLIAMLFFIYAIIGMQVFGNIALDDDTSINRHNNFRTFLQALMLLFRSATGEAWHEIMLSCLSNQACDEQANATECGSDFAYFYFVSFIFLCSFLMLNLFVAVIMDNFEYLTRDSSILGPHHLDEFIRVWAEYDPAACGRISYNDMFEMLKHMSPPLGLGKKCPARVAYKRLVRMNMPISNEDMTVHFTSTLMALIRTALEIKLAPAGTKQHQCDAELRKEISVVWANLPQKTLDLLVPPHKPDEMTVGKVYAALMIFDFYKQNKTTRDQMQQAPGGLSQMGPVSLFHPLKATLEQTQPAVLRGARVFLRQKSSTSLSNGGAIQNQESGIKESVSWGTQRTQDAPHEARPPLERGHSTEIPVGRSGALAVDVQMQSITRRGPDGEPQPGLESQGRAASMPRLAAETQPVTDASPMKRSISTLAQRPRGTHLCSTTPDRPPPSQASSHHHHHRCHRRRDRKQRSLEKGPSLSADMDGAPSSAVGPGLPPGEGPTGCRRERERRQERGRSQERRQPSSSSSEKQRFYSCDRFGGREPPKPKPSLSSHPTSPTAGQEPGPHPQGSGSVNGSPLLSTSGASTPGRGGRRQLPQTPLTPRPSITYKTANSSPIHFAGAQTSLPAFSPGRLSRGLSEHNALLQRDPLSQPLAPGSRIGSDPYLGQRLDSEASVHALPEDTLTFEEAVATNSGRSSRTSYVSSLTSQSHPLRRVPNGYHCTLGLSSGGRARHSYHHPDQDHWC
Chain of human Cav2.2 (P54289 25-946 partner limits assumed): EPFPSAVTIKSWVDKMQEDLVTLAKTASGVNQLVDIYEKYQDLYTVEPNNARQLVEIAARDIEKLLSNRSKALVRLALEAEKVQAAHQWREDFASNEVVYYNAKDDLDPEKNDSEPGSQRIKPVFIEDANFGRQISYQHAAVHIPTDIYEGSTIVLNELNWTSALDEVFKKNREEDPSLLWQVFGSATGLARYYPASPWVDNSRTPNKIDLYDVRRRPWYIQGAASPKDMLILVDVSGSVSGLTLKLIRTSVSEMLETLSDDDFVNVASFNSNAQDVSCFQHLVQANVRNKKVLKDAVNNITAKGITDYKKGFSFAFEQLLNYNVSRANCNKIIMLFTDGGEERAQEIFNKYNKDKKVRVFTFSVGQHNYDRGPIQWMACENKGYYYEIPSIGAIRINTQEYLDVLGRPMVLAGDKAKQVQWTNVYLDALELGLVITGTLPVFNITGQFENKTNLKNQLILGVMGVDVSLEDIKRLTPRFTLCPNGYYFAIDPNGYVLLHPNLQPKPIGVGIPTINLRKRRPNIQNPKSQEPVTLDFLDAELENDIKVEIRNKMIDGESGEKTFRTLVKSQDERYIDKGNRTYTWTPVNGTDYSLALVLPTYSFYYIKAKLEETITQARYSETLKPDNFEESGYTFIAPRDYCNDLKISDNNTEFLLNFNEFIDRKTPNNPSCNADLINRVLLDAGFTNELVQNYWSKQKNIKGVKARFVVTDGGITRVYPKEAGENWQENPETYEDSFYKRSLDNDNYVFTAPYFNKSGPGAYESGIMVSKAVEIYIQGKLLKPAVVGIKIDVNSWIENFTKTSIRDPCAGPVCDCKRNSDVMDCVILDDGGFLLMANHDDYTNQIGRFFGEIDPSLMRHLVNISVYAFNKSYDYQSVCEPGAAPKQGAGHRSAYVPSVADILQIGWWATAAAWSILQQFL
Chain of human Cav2.2 (P54289 947-1103 partner limits assumed): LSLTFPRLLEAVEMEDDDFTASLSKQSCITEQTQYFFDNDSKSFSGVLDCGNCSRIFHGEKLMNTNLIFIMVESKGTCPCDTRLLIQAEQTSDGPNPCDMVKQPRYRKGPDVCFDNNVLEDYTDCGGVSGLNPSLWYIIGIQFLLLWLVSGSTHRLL
Chain of human Cav2.2 (P54284 whole entry partner): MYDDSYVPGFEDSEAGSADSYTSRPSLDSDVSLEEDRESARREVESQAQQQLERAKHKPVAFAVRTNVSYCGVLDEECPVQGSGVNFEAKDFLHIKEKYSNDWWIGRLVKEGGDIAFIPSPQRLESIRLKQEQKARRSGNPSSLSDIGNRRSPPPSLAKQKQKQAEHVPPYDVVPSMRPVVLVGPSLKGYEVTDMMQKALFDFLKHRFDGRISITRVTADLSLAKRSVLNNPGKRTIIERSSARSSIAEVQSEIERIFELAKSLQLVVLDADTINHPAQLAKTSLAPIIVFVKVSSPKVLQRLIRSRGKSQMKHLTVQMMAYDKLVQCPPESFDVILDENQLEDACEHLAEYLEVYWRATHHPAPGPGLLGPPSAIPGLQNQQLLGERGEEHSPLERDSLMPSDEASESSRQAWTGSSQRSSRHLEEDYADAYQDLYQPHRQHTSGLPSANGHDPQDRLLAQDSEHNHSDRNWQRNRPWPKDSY
Type: cell-based
Procedure: (i) In Vitro Methods—Assessment of Calcium Channel Activity Using FLIPR:
The IMR32 cells were maintained in MEM media containing 10% (v/v) FBS, 1% (v/v) antibiotic/antimitotic, 1% (v/v) sodium pyruvate and 1% (v/v) MEM NEAA. Following dissociation in 0.05% (v/v) trypsin/EDTA, cells were seeded into black 1×96-well plates (Corning Cellbind) at a density of 1-1.2×10^5 cells/well and incubated in the maintenance media above for 48 hours at 37° C. […] To determine the IC50 values, the percent inhibition of the compound at each concentration was determined relative to the activity in the absence of inhibitor, and data was fitted using non-linear regression sigmoidal dose response curve analysis with GraphPad Prism®.
In the case of `O=C(N[C@H]1CC[C@H]2CN(Cc3ccccc3)C[C@H]21)C1(c2ccccc2)CCCC1` (relative stereo) [Example 1, N-[(3aS*,4S*,6aR*)-2-benzyloctahydrocyclopenta[c]pyrrol-4-yl]-1-phenylcyclopentanecarboxamide], the IC50 is reported as 3500 nM. `O=C(N[C@@H]1CC[C@H]2CN(Cc3ccccc3)C[C@H]21)C1(c2ccccc2)CCCC1` (relative stereo) [Example 2, N-[(3aS*,4R*,6aR*)-2-benzyloctahydrocyclopenta[c]pyrrol-4-yl]-1-phenylcyclopentanecarboxamide] showed an IC50 of 4200 nM. `CC(C)C(C(=O)N[C@@H]1CC[C@@H]2CN(Cc3ccccc3)C[C@@H]21)c1ccccc1` (relative stereo) [Example 5, N-[(3aR*,4R*,6aS*)-2-benzyloctahydrocyclopenta[c]pyrrol-4-yl]-3-methyl-2-phenylbutanamide] was tested, and the IC50 was 3800 nM. `CC(C)C(C(=O)N[C@H]1CC[C@@H]2CN(Cc3ccccc3)C[C@@H]21)c1ccccc1` (relative stereo) [Example 6, N-[(3aR*,4S*,6aS*)-2-benzyloctahydrocyclopenta[c]pyrrol-4-yl]-3-methyl-2-phenylbutanamide] gave an IC50 of 2200 nM. In the case of `O=C(N[C@H]1CC[C@H]2CN(Cc3ccccc3)C[C@H]21)C(c1ccccc1)C1CCCC1` (relative stereo) [Example 7, N-[(3aS*,4S*,6aR*)-2-benzyloctahydrocyclopenta[c]pyrrol-4-yl]-2-cyclopentyl-2-phenylacetamide], the IC50 is reported as 1800 nM. `O=C(N[C@H]1CC[C@H]2CN(Cc3ccccc3)C[C@H]21)C1(c2ccccc2)CCCCC1` (relative stereo) [Example 9, N-[(3aS*,4S*,6aR*)-2-benzyloctahydrocyclopenta[c]pyrrol-4-yl]-1-phenylcyclohexanecarboxamide] gave an IC50 of 1800 nM. With `O=C(N[C@@H]1CC[C@H]2CN(Cc3ccccc3)C[C@H]21)C1(c2ccccc2)CCCCC1` (relative stereo) [Example 10, N-[(3aS*,4R*,6aR*)-2-benzyloctahydrocyclopenta[c]pyrrol-4-yl]-1-phenylcyclohexanecarboxamide] the IC50 was 1300 nM.

Same assay, conditions: 60 minute pre-incubation with compound, 2 μM nifedipine, depolarized with 80 mM KCl
Work on `O=C(N[C@H]1CC[C@H]2CN(Cc3ccccc3)C[C@H]21)C(C1CCCCC1)C1CCCCC1` (relative stereo) [Example 11, N-[(3aS*,4S*,6aR*)-2-benzyloctahydrocyclopenta[c]pyrrol-4-yl]-2,2-dicyclohexylacetamide] yielded an IC50 of 4000 nM. In the case of `CC(C)C(C(=O)N[C@H]1CC[C@H]2CN(Cc3cccc(C(F)(F)F)c3)C[C@H]21)c1ccccc1` (relative stereo) [Example 122, 3-methyl-2-phenyl-N-{(3aS*,4S*,6aR*)-2-[3-(trifluoromethyl)benzyl]octahydrocyclopenta[c]pyrrol-4-yl}butanamide], the IC50 is reported as 600 nM. Molecule `O=C(N[C@H]1CC[C@H]2CN(Cc3cccc(C(F)(F)F)c3)C[C@H]21)C(C1CCCCC1)C1CCCCC1` (relative stereo) [Example 124, 2,2-dicyclohexyl-N-{(3aS*,4S*,6aR*)-2-[3-(trifluoromethyl)benzyl]octahydrocyclopenta[c]pyrrol-4-yl}acetamide] has an IC50 of 700 nM. For `CCC(CC)C(=O)N[C@H]1CC[C@H]2CN(Cc3cccc(C(F)(F)F)c3)C[C@H]21` (relative stereo) [Example 125, 2-ethyl-N-{(3aS*,4S*,6aR*)-2-[3-(trifluoromethyl)benzyl]octahydrocyclopenta[c]pyrrol-4-yl}butanamide], the IC50 was 2800 nM. Molecule `CCCC(CCC)C(=O)N[C@H]1CC[C@H]2CN(Cc3cccc(C(F)(F)F)c3)C[C@H]21` (relative stereo) [Example 126, 2-propyl-N-{(3aS*,4S*,6aR*)-2-[3-(trifluoromethyl)benzyl]octahydrocyclopenta[c]pyrrol-4-yl}pentanamide] has an IC50 of 1000 nM. `O=C(N[C@H]1CC[C@H]2CN(Cc3cccc(C(F)(F)F)c3)C[C@H]21)C1CCCCC1` (relative stereo) [Example 127, N-{(3aS*,4S*,6aR*)-2-[3-(trifluoromethyl)benzyl]octahydrocyclopenta[c]pyrrol-4-yl}cyclohexanecarboxamide] was tested, and the IC50 was 1500 nM. `O=C(N[C@H]1CC[C@H]2CN(Cc3cccc(C(F)(F)F)c3)C[C@H]21)C1CCCCCC1` (relative stereo) [Example 128, N-{(3aS*,4S*,6aR*)-2-[3-(trifluoromethyl)benzyl]octahydrocyclopenta[c]pyrrol-4-yl}cycloheptanecarboxamide] showed an IC50 of 1000 nM. With `O=C(N[C@H]1CC[C@H]2CN(Cc3cccc(C(F)(F)F)c3)C[C@H]21)C1CCCC1` (relative stereo) [Example 129, N-{(3aS*,4S*,6aR*)-2-[3-(trifluoromethyl)benzyl]octahydrocyclopenta[c]pyrrol-4-yl}cyclopentanecarboxamide] the IC50 was 2900 nM. In the case of `O=C(CC(c1ccccc1)c1ccccc1)N[C@H]1CC[C@H]2CN(Cc3cccc(C(F)(F)F)c3)C[C@H]21` (relative stereo) [Example 131, 3,3-diphenyl-N-{(3aS*,4S*,6aR*)-2-[3-(trifluoromethyl)benzyl]octahydrocyclopenta[c]pyrrol-4-yl}propanamide], the IC50 is reported as 700 nM. For `O=C(N[C@H]1CC[C@H]2CN(Cc3cccc(C(F)(F)F)c3)C[C@H]21)C(c1ccccc1)c1ccccc1` (relative stereo) [Example 135, 2,2-diphenyl-N-{(3aS*,4S*,6aR*)-2-[3-(trifluoromethyl)benzyl]octahydrocyclopenta[c]pyrrol-4-yl}acetamide], the IC50 was 900 nM. For `O=C(N[C@H]1CC[C@H]2CN(Cc3cccc(C(F)(F)F)c3)C[C@H]21)C(c1ccc(F)cc1)c1ccc(F)cc1` (relative stereo) [Example 136, 2,2-bis(4-fluorophenyl)-N-{(3aS*,4S*,6aR*)-2-[3-(trifluoromethyl)benzyl]octahydrocyclopenta[c]pyrrol-4-yl}acetamide], the IC50 was 1100 nM. `CC(C)C[C@H](NC(=O)OC(C)(C)C)C(=O)N[C@@H]1CC[C@@H]2CN(Cc3cccc(C(F)(F)F)c3)C[C@@H]21` (relative stereo) [Example 137, N^2-(tert-butyloxycarbonyl)-N^1-{(3aR*,4R*,6aS*)-2-[3-(trifluoromethyl)benzyl]octahydrocyclopenta[c]pyrrol-4-yl}-L-leucinamide] showed an IC50 of 600 nM. For `O=C(CC(c1ccccc1)c1ccccc1)N[C@@H]1CC[C@H]2CN(Cc3cccc(C(F)(F)F)c3)C[C@H]21` (relative stereo) [Example 141, 3,3-diphenyl-N-{(3aS*,4R*,6aR*)-2-[3-(trifluoromethyl)benzyl]octahydrocyclopenta[c]pyrrol-4-yl}propanamide], the IC50 was 600 nM. `c1ccc(CN2C[C@@H]3CC[C@@H](NC4CC4)[C@@H]3C2)cc1` (relative stereo) [Example 197, (3aS*,4R*,6aR*)-2-benzyl-N-cyclopropyloctahydrocyclopenta[c]pyrrol-4-amine] was tested, and the IC50 was 69700 nM. `c1ccc(CN2C[C@@H]3CC[C@H](NC4CC4)[C@@H]3C2)cc1` (relative stereo) [Example 198, (3aS*,4S*,6aR*)-2-benzyl-N-cyclopropyloctahydrocyclopenta[c]pyrrol-4-amine] showed an IC50 of 40400 nM.

Same assay, conditions: IMR-32, @ 10 μM, 60 minute pre-incubation, read-out: percent inhibition
In the case of `O=C(N[C@@H]1CC[C@@H]2CN(Cc3ccccc3)C[C@@H]21)C(c1ccccc1)C1CCCCC1` (relative stereo) [Example 3, N-[(3aR*,4R*,6aS*)-2-benzyloctahydrocyclopenta[c]pyrrol-4-yl]-2-cyclohexyl-2-phenylacetamide], the inhibition at 10 µM is reported as 91%.

Source: patent publication US8129417B2, “Substituted octahydrocyclopenta[C]pyrrol-4-amines as calcium channel blockers” (Abbott Laboratories, priority 2008, dated 2012)
